Results from PubChem BioAssay AID2060506 (Molecular Pharmacology Branch, DTP, NCI, 2025).
pIC50: −log10 of the molar value.

Test system: 598228-144-R-J1-PDC complex spheroid viability
Assay: Anticancer human tumor 598228-144-R-J1-PDC patient-derived serous endometrial adenocarcinoma cell line growth inhibition [GQUAD]
Details: for pIC50: curve of first compound; for viability, T/C: stronger effect = lower value
Summary of the method: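 Tumor cells were grown as complex spheroids with HUVEC endothelial cells and mesenchymal stem cells as stroma. G-quadruplex stabilizers were combined with targeted agents over half-log dilutions from near the clinical Cmax, or from 10 microM.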

[1] = second compound 0.0316 µM, first compound 0.0316 µM
[2] = second compound 0.0316 µM, first compound 0.1 µM
[3] = second compound 0.0316 µM, first compound 0.316 µM
[4] = second compound 0.0316 µM, first compound 1 µM
[5] = second compound 0.0316 µM, first compound 3.16 µM
[6] = second compound 0.0316 µM, first compound 10 µM
[7] = second compound 0.1 µM, first compound 0.0316 µM
[8] = second compound 0.1 µM, first compound 0.1 µM
[9] = second compound 0.1 µM, first compound 0.316 µM
[10] = second compound 0.1 µM, first compound 1 µM
[11] = second compound 0.1 µM, first compound 3.16 µM
[12] = second compound 0.1 µM, first compound 10 µM
[13] = second compound 0.316 µM, first compound 0.0316 µM
[14] = second compound 0.316 µM, first compound 0.1 µM
[15] = second compound 0.316 µM, first compound 0.316 µM
[16] = second compound 0.316 µM, first compound 1 µM
[17] = second compound 0.316 µM, first compound 3.16 µM
[18] = second compound 0.316 µM, first compound 10 µM
[19] = second compound 1 µM, first compound 0.0316 µM
[20] = second compound 1 µM, first compound 0.1 µM
[21] = second compound 1 µM, first compound 0.316 µM
[22] = second compound 1 µM, first compound 1 µM
[23] = second compound 1 µM, first compound 3.16 µM
[24] = second compound 1 µM, first compound 10 µM
[25] = second compound 3.16 µM, first compound 0.0316 µM
[26] = second compound 3.16 µM, first compound 0.1 µM
[27] = second compound 3.16 µM, first compound 0.316 µM
[28] = second compound 3.16 µM, first compound 1 µM
[29] = second compound 3.16 µM, first compound 3.16 µM
[30] = second compound 3.16 µM, first compound 10 µM
[31] = second compound 10 µM, first compound 0.0316 µM
[32] = second compound 10 µM, first compound 0.1 µM
[33] = second compound 10 µM, first compound 0.316 µM
[34] = second compound 10 µM, first compound 1 µM
[35] = second compound 10 µM, first compound 3.16 µM
[36] = second compound 10 µM, first compound 10 µM
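Also: spheroids exposed to the agents for one week before reading.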
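For viability, T/C in this document: percent of vehicle DMSO control viability so 100% = untreated growth.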

CCCS(=O)(=O)Nc1ccc(F)c(C(=O)c2c[nH]c3ncc(-c4ccc(Cl)cc4)cc23)c1F + CN(C)c1ccc(Nc2c3ccc(NC(=O)CCN4CCCC4)cc3nc3cc(NC(=O)CCN4CCCC4)ccc23)cc1
pIC50 (second compound 0.0316 µM): 5.10 | pIC50 (second compound 0.1 µM): 5.13 | pIC50 (second compound 0.316 µM): 5.13 | pIC50 (second compound 1 µM): 5.12 | pIC50 (second compound 3.16 µM): 5.15 | pIC50 (second compound 10 µM): 5.28 | viability, T/C [1]: 105% | viability, T/C [2]: 121% | viability, T/C [3]: 93.8% | viability, T/C [4]: 107% | viability, T/C [5]: 110% | viability, T/C [6]: 34.8% | viability, T/C [7]: 94.3% | viability, T/C [8]: 104% | viability, T/C [9]: 111% | viability, T/C [10]: 109% | viability, T/C [11]: 123% | viability, T/C [12]: 29.8% | viability, T/C [13]: 122% | viability, T/C [14]: 108% | viability, T/C [15]: 97.1% | viability, T/C [16]: 124% | viability, T/C [17]: 93.2% | viability, T/C [18]: 34.1% | viability, T/C [19]: 89.3% | viability, T/C [20]: 99.2% | viability, T/C [21]: 110% | viability, T/C [22]: 133% | viability, T/C [23]: 108% | viability, T/C [24]: 32.6% | viability, T/C [25]: 94.1% | viability, T/C [26]: 95.4% | viability, T/C [27]: 80.8% | viability, T/C [28]: 118% | viability, T/C [29]: 100% | viability, T/C [30]: 29.3% | viability, T/C [31]: 103% | viability, T/C [32]: 75.3% | viability, T/C [33]: 100% | viability, T/C [34]: 86.8% | viability, T/C [35]: 74% | viability, T/C [36]: 19.2%

COc1ncnc(C2CC2)c1-c1ncc2cnn(Cc3ccc(-c4nc(C(F)(F)F)cn4C(C)C)cc3)c2n1 + Cc1[nH]c2ccc(F)cc2c1-c1nc2c3cccnc3c3ncccc3c2[nH]1
pIC50 (second compound 0.0316 µM): < 5.00 | pIC50 (second compound 0.1 µM): < 5.00 | pIC50 (second compound 0.316 µM): < 5.00 | pIC50 (second compound 1 µM): < 5.00 | pIC50 (second compound 3.16 µM): > 7.50 | pIC50 (second compound 10 µM): < 5.00 | viability, T/C [1]: 130% | viability, T/C [2]: 124% | viability, T/C [3]: 125% | viability, T/C [4]: 93.1% | viability, T/C [5]: 119% | viability, T/C [6]: 112% | viability, T/C [7]: 116% | viability, T/C [8]: 94.5% | viability, T/C [9]: 103% | viability, T/C [10]: 91.8% | viability, T/C [11]: 114% | viability, T/C [12]: 130% | viability, T/C [13]: 94.3% | viability, T/C [14]: 93.3% | viability, T/C [15]: 82% | viability, T/C [16]: 93.1% | viability, T/C [17]: 126% | viability, T/C [18]: 105% | viability, T/C [19]: 51.1% | viability, T/C [20]: 76.1% | viability, T/C [21]: 74.5% | viability, T/C [22]: 58% | viability, T/C [23]: 66.2% | viability, T/C [24]: 78.3% | viability, T/C [25]: 38% | viability, T/C [26]: 31.1% | viability, T/C [27]: 39.2% | viability, T/C [28]: 34.2% | viability, T/C [29]: 41.8% | viability, T/C [30]: 38.7% | viability, T/C [31]: 65% | viability, T/C [32]: 65% | viability, T/C [33]: 69.6% | viability, T/C [34]: 57.2% | viability, T/C [35]: 77.7% | viability, T/C [36]: 105%
